Results reported in patent US8552065B2, “Biarylamide derivative and compositions containing the derivative as an active ingredient” (Catholic University Industry Academy Cooperation Foundation, priority 2010, dated 2013).

Columns and labels:
[1] = system: Melan-a cells, that is, mouse melanocytes; assay: Melanin production inhibition by biarylamide derivatives in melan-a cells (Example 2-2); type: cell-based; conditions: 30 mM derivative, 10 μl per day for 3 days, final concentration 300 μM, absorbance 400 nm
Protocol: Melan-a cells, that is, mouse melanocytes, were inoculated onto a 24-well culture plate (10^5 cells), and cultured in RPMI1640 medium including fetal bovine serum (FBS) 10% and 200 nM of phorbol 12-myristate 13-acetate (TPA) for 24 hours. Then, in each well, 990 μl of RPMI1640 medium including FBS 10% and 200 nM TPA was treated with 30 mM of the inventive biarylamide derivative (10 μl per day for 3 days) (final concentration 300). The last day of treatment, the cells were washed with Phosphate buffered saline (PBS) three times, lysed with 1 ml of 1M sodium hydroxide (NaOH) solution, and measured using ELISA Leader at absorbance of 400 nm.

[2] = system: A375 human melanoma cell lines; assay: A375 melanoma cell growth inhibition, BrdU cell proliferation assay (Example 5); type: cell-based; conditions: respective concentrations, 48 hours, absorbance 450 nm, FIG. 3
Protocol: A375 cells were inoculated onto a 96 well plate (3×10^3 cells), and cultured in DMEM containing fetal bovine serum (FBS) 10% for 16 hours, and then treated with A3/B5 at respective concentrations, and cultured for 48 hours. Then, by using BrdU cell proliferation assay kit (Roche, Germany), the degree of cell growth inhibition by A3/B5 was examined.

[3] = system: Melan-a cells, that is, mouse melanocytes; assay: Melanin production inhibition by A3/B5 in melan-a cells, with cell viability (Example 3); type: cell-based; conditions: A3/B5 treatment per day for 3 days, final concentration 1, 10, and 25 (unit not given), FIG. 1A
Protocol: (§1) In order to examine the effect of A3/B5 on melanin inhibition, the degree of melanin production was analyzed using melan-a cells, that is, mouse melanocytes and human normal melanocytes. Melanocytes were inoculated onto a 24-well culture plate (10^5 cells) and cultured in RPMI1640 medium including fetal bovine serum (FBS) 10% and 200 nM of phorbol 12-myristate 13-acetate (TPA) for 24 hours. Then, in each well, 990 μl of RPMI1640 medium including FBS 10% and 200 nM TPA was treated with
(§2) 100, 1000, and 2500 of A3/B5 (10 μl per day for 3 days) (final concentration 1, 10, and 25). The last day of treatment, the cells were washed with Phosphate buffered saline (PBS) three times, lysed with 1 ml of 1M sodium hydroxide (NaOH) solution, and measured using ELISA Leader at absorbance of 400 nm. Additionally, in order to determine if the inhibition of melanin production is caused by apoptosis, cell viability was examined under the same condition as described above. For this, The last day of treatment, the cells were washed with phosphate buffered saline (PBS) three times, and the cells in each well were stained with 200 μl of Crystal Violet (0.1%, EtOH 10%, PBS 89.9%) for 5 minutes, washed with phosphate buffer, lysed in 1 ml of ethanol solution, and measured at absorbance of 590 nm. Further, this experiment was performed for human normal melanocytes in the same manner.

[4] = system: TRP-2 (Tyrosinase related protein-2, Dopachrom tautomerase); assay: TRP-2 expression in melan-a cells by western blotting (Example 4); type: cell-based, mouse; conditions: 50 uM
Protocol: In order to examine the effects of A3/B5 on TRP-2 expression, mouse melanocytes (melan-a) were cultured in RPMI1640 medium including fetal bovine serum (FBS) 10% and 200 nM of phorbol 12-myristate 13-acetate (TPA) for 24 hours, and treated with A3/B5 at a concentration of 50 uM (per day for 3 days). In order to determine the expression level of TRP-2 over 3 days, each test group was lysed in RIPA buffer solution containing 2 mM EDTA, 137 mM NaCl, 20 mM Tris-HCl (pH 8.0), 1 mM sodium vanadate, 10 mM NaF, 1 mM PMSF (phenylmethanesulfonyl fluoride), 1% NP-40, 10% glycerol and a protease inhibitor cocktail, and protein was separated by SDS-PAGE electrophoresis using 10% acrylamide gel. This was transferred to a nylon membrane, and TRP-2 protein was analyzed by anti TRP-2 antibody (santacuz, US) and anti-Rabbit IgG horse Radish Peroxidase (HRP) conjugation antibody (1;10000, zymed) as a secondary antibody. This was detected by Chemiluminescence reagent kit (ECL, Amersham, US) and then imaged using RAS 3000 Imaging system (FUJI film, Japan) as an image analyzer. Further, in a case where the cells were treated with A3B5 once on the first day of 3 consecutive days, the expression level of TRP-2 over 3 days was also analyzed in the same manner as described above.

[5] = system: B16F10 mouse melanoma cell; assay: B16F10 melanoma cell proliferation in hairless mouse model (Example 6); type: in vivo; conditions: hairless mice; 100 μl of 1 mM A3/B5 injected into the cell region for 5 days; sectioned on 6th day; FIG. 4
Protocol: In order to examine the effect of A3/B5 on the inhibition of melanoma cell proliferation, into the back of 5 hairless mice, at both sides of subcutaneous tissues, 5×10^5 B16F10 cells (B16F10 mouse melanoma cell) were injected. Then, 48 hours later, into the region injected with the cells, 100 μl of A3/B5 diluted with phosphate buffer solution to a concentration of 1 mM, and 100 μl of phosphate buffer solution as a control, were injected for 5 days, respectively. On the 6th day, the injected cell region was sectioned and its size and weight were analyzed.

human normal melanocytes = assay: Melanin production inhibition by A3/B5 in human normal melanocytes (Example 3); type: cell-based; conditions: A3/B5 treatment per day for 3 days, final concentration 1, 10, and 25 (unit not given), FIG. 1B
Protocol: as §1, §2

SMILES	Reduction rate of melanin(%) [1] [%]	also measured
Cc1ccc(C(=O)Nc2cccc(C)c2)cc1 [A1/B3, 4-methyl-N-m-tolylbenzamide]	32.6	–
CCc1ccc(C(=O)Nc2cccc(C)c2)cc1 [A1/B4, 4-ethyl-N-m-tolylbenzamide]	23.3	–
COc1ccc(C(=O)Nc2cccc(C)c2)cc1 [A1/B6, 4-methoxy-N-m-tolylbenzamide]	24.3	–
Cc1cccc(NC(=O)c2ccc(C#N)cc2)c1 [A1/B7, 4-cyano-N-m-tolylbenzamide]	34.2	–
Cc1ccc(NC(=O)c2ccc(C)cc2)cc1 [A2/B3, 4-methyl-N-p-tolylbenzamide]	8.6	–
Cc1ccc(C(=O)Nc2cc(C)cc(C)c2)cc1 [A3/B3, N-(3,5-dimethylphenyl)-4-methylbenzamide]	35.8	–
CCc1ccc(C(=O)Nc2cc(C)cc(C)c2)cc1 [A3/B4, N-(3,5-dimethylphenyl)-4-ethylbenzamide]	36.5	–
COc1cccc(C(=O)Nc2cc(C)cc(C)c2)c1 [A3/B5, N-(3,5-dimethylphenyl)-3-methoxybenzamide]	48.7	inhibition on growth of A375 melanoma cells [2]: inhibition on growth of A375 melanoma cells was increased; reduction in melanin production content of melanocytes with respect to cell viability, as compared to a non-treated group [3]: about 40%; expression level of TRP-2 protein as compared to non-treated group ([4]; treated daily for 3 days, FIG. 2A): significant reduction; expression level of TRP-2 protein as compared to non-treated group ([4]; treated only once on the first day of 3 consecutive days, FIG. 2B): significant reduction; size of injected B16F10 cell region versus phosphate buffer control [5]: smaller; weight of injected B16F10 cell region versus phosphate buffer control [5]: smaller; reduction in melanin production content of melanocytes with respect to cell viability, as compared to a non-treated group (human normal melanocytes): about 20%
Cc1cc(C)cc(NC(=O)c2ccc(C#N)cc2)c1 [A3/B7, 4-cyano-N-(3,5-dimethylphenyl)benzamide]	50.6	–
COc1ccccc1NC(=O)c1ccccc1C [A4/B1, N-(2-Methoxyphenyl)-2-methylbenzamide]	17.7	–
COc1ccc(OC)c(NC(=O)c2ccccc2C)c1 [A8/B1, N-(2,5-Dimethoxyphenyl)-2-methylbenzamide]	45.5	–
CC(=O)c1ccc(NC(=O)c2ccc(C)cc2)cc1 [A10/B3, N-(4-acetylphenyl)-4-methylbenzamide]	10.4	–
CCCCOc1ccc(NC(=O)c2ccccc2C)cc1 [A11/B1, N-(4-Butoxyphenyl)-2-methylbenzamide]	8.9	–
COC(=O)c1ccccc1NC(=O)c1ccc(C)cc1 [A12/B3, methyl 2-(4-methylbenzamido)benzoate]	9.4	–
CCc1ccc(C(=O)Nc2ccccc2C(=O)OC)cc1 [A12/B4, methyl 2-(4-ethylbenzamido)benzoate]	9.4	–
COC(=O)c1ccccc1NC(=O)c1ccc(OC)cc1 [A12/B6, methyl 2-(4-methoxybenzamido)benzoate]	39.0	–
COC(=O)c1ccc(NC(=O)c2cccc(C)c2)cc1 [A14/B2, Methyl 4-(3-methylbenzamido)benzoate]	30.6	–
